Earlier results on two compounds are cited in patent publication US8883204B2, “Tamper resistant co-extruded dosage form containing an active agent and an adverse agent and process of making same” (Purdue Pharma L.P., priority 2003, dated 2014).

For this series the following is noted: administered orally.

With `C[C@H]1[C@H]2Cc3ccc(O)cc3[C@]1(C)CCN2CC1CC1` [cyclazocine], the duration of action was roughly 24 h.

In the case of `O=C1CC[C@@]2(O)[C@H]3Cc4ccc(O)c5c4[C@@]2(CCN3CC2CC2)[C@H]1O5` [naltrexone], the duration of action was roughly 24 h.
